Data reported in PubChem BioAssay (NCI).
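The compound was tested at five concentrations on cells cultured in 96-well plates, with a 48-hour exposure period. GI50 = concentration required for 50% inhibition of growth. At the TGI there is no net growth.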

Legend:
Test in all cases: DTP human tumour cell line panel, 48 h
[1] = test system: RXF 393 renal
[2] = test system: SK-MEL-5 melanoma
[3] = test system: UO-31 renal
[4] = test system: SR leukemia
[5] = test system: OVCAR-5 ovarian
[6] = test system: SF-539 CNS
[7] = test system: SNB-75 CNS
[8] = test system: TK-10 renal
[9] = test system: SK-MEL-2 melanoma
[10] = test system: NCI-H522 lung

Structure (SMILES) | GI50 [1] | TGI [1] | GI50 [2] | TGI [2] | GI50 [3] | TGI [3] | GI50 [4] | TGI [4] | GI50 [5] | TGI [5] | GI50 [6] | TGI [6] | GI50 [7] | TGI [7] | TGI [8] | TGI [9] | TGI [10] | GI50 [10] | GI50 [8] | GI50 [9]
NCCOCCOCCNc1nc(Cc2ccccc2)nc(NCCCN2CCCC2=O)n1 | > 100 µM | > 100 µM | > 100 µM | > 100 µM | > 100 µM | > 100 µM | > 100 µM | > 100 µM | > 100 µM | > 100 µM | > 100 µM | > 100 µM | > 100 µM | > 100 µM | – | – | – | – | – | –
C/C(=N\NS(=O)(=O)c1ccccc1)c1ccc(Cl)c(Cl)c1 | – | > 100 µM | – | > 100 µM | – | > 100 µM | – | > 100 µM | – | > 100 µM | – | > 100 µM | – | > 100 µM | > 100 µM | > 100 µM | – | – | – | –
CCCCCCCCCCC(C(=O)O)C1(C(=O)O)CCC(=O)O1 (stereo not drawn) | – | > 100 µM | – | – | – | > 100 µM | – | > 100 µM | – | > 100 µM | – | – | – | > 100 µM | > 100 µM | > 100 µM | > 100 µM | – | – | –
CN(C)CCCNC(CC#N)CCC#N (stereo not drawn) | – | > 10 µM | – | > 10 µM | – | > 10 µM | – | – | – | > 10 µM | – | > 10 µM | – | > 10 µM | > 10 µM | > 10 µM | > 10 µM | – | – | –
O=C(COc1ccc2c(=O)cc(-c3ccccc3)oc2c1)N1CCN(c2ccccc2)CC1 | – | > 100 µM | – | > 100 µM | – | > 100 µM | – | – | – | > 100 µM | – | > 100 µM | – | > 100 µM | > 100 µM | 77.8 µM | 93.8 µM | – | – | –
CN(C)C(=O)OC(Cn1cncn1)c1ccc(Cl)cc1Cl (stereo not drawn) | – | > 100 µM | – | > 100 µM | – | > 100 µM | – | – | – | > 100 µM | – | > 100 µM | – | > 100 µM | > 100 µM | > 100 µM | > 100 µM | – | – | –
Cc1ccc(C(=O)c2nnc(C(=O)c3ccc(C)cc3)nn2)cc1 | – | – | – | > 100 µM | – | > 100 µM | – | 37.6 µM | – | > 100 µM | – | > 100 µM | – | > 100 µM | > 100 µM | > 100 µM | > 100 µM | – | – | –
O=C(O)/C=C\C(=O)N1C/C(=C\c2ccccc2Cl)C(=O)/C(=C/c2ccccc2Cl)C1 | 1.84 µM | 3.36 µM | 3.03 µM | 12 µM | 1.98 µM | 3.72 µM | 0.632 µM | 13 µM | – | – | 3.01 µM | 8.24 µM | 3.8 µM | 14 µM | 12.3 µM | 8.33 µM | 4.1 µM | 1.96 µM | 4.47 µM | 3.08 µM
Cc1csc(=S)n1OC(=O)NC1CCCCC1 | – | > 100 µM | – | > 100 µM | – | > 100 µM | – | 47.3 µM | – | – | – | > 100 µM | – | > 100 µM | > 100 µM | > 100 µM | > 80.9 µM | – | – | –
Cc1cc(N(CCC#N)CCC#N)ccc1N=Nc1cccc(C(=O)O)c1 | – | > 100 µM | – | > 100 µM | – | > 100 µM | – | – | – | > 100 µM | – | > 100 µM | – | > 100 µM | > 100 µM | > 100 µM | > 100 µM | – | – | –
Nn1c(NNC(=O)C(=O)Nc2cc(Cl)c(Cl)cc2Cl)n[nH]c1=S | – | > 100 µM | – | > 100 µM | – | > 100 µM | – | – | – | > 100 µM | – | > 100 µM | – | > 100 µM | > 100 µM | – | > 100 µM | – | – | –
NC1C[C@H](n2cc(/C=C/Br)c(=O)[nH]c2=O)C[C@@H]1CO (stereo partly drawn) | – | > 100 µM | – | – | – | > 100 µM | – | – | – | – | – | > 100 µM | – | > 100 µM | > 100 µM | – | > 100 µM | – | – | –
COc1cc(OC(C)=O)cc2c(OC(C)=O)ccc(OC(C)=O)c12 | – | > 100 µM | – | > 100 µM | – | > 100 µM | – | > 100 µM | – | > 100 µM | – | – | – | – | > 100 µM | > 100 µM | > 100 µM | – | – | –
COC(=O)C(=O)C1(CCC(C)=O)c2ccccc2-c2c(C)ccc(C)c21 (stereo not drawn) | – | 76.1 µM | – | 65.2 µM | – | > 100 µM | – | 61.5 µM | – | > 100 µM | – | – | – | > 100 µM | > 100 µM | > 100 µM | 94.1 µM | – | – | –
COc1cc(C(=O)C/C(CCCC(=O)Nc2ccccc2[N+](=O)[O-])=N/NC(=O)c2cc3ccccc3cc2O)ccc1O | – | > 100 µM | – | > 83.7 µM | – | > 100 µM | – | – | – | > 100 µM | – | > 100 µM | – | > 100 µM | > 100 µM | > 100 µM | > 100 µM | – | – | –
COC(C(=O)[O][Ge]([CH3])([CH3])[CH3])c1ccccc1 (stereo not drawn) | > 100 µM | > 100 µM | > 100 µM | > 100 µM | > 100 µM | > 100 µM | > 100 µM | > 100 µM | > 100 µM | > 100 µM | > 100 µM | > 100 µM | > 100 µM | > 100 µM | > 100 µM | – | > 100 µM | > 100 µM | > 100 µM | –
COc1ccc(-c2ccc(/C=N/n3c(COc4ccc(Cl)cc4Cl)nn(CN4CCOCC4)c3=S)o2)c([N+](=O)[O-])c1 | 24.3 µM | 88.9 µM | – | – | 42.7 µM | > 100 µM | 27.7 µM | 68.4 µM | 38.8 µM | > 100 µM | 18.8 µM | 62.9 µM | – | – | 49.2 µM | – | > 100 µM | 45.1 µM | 14.1 µM | –
O=C1[C@H]2ON(c3ccccc3)C(c3ccccc3Cl)[C@H]2C(=O)N1c1ccc(Cc2ccc(N3C(=O)[C@@H]4ON(c5ccccc5)C(c5ccccc5Cl)[C@@H]4C3=O)cc2)cc1 (stereo partly drawn) | – | – | – | > 100 µM | – | > 100 µM | – | > 100 µM | – | > 100 µM | – | > 100 µM | – | > 100 µM | > 100 µM | > 100 µM | > 100 µM | – | – | –
CC(=O)OCC1OC(OC2C(CSC3OC(COC(C)=O)C(OC(C)=O)C(OC(C)=O)C3OC(C)=O)OC(OC(C)=O)C(OC(C)=O)C2OC(C)=O)C(OC(C)=O)C(OC(C)=O)C1OC(C)=O (stereo not drawn) | – | – | – | > 100 µM | – | > 100 µM | – | > 100 µM | – | > 100 µM | – | > 100 µM | – | > 100 µM | > 100 µM | – | > 100 µM | – | – | –
CC1SC2=NC3=C(c4ccccc4C3=O)C(c3ccc(F)cc3)N2C1=O (stereo not drawn) | – | – | – | > 100 µM | – | > 100 µM | – | – | – | > 100 µM | – | > 100 µM | – | > 100 µM | > 100 µM | > 100 µM | > 100 µM | – | – | –
CCOc1ccc(NC(=O)C(=O)CC(=O)C2=C(C)Nc3ccccc3S2)cc1 | – | > 50 µM | – | > 50 µM | – | > 50 µM | – | – | – | > 50 µM | – | > 50 µM | – | – | > 50 µM | > 50 µM | > 50 µM | – | – | –
